# PubChem BioAssay AID2060503 (Molecular Pharmacology Branch, DTP, NCI, 2025)
# Several values for one entry are separate records, joined by “and”; a condition that tells them apart may be missing. Equal entries are not always repeated.
# System: 817829-284-R-J1-PDC complex spheroids, viability
# Assay: Anticancer human tumor 817829-284-R-J1-PDC patient-derived colon adenocarcinoma cell line growth inhibition [GQUAD]
# Details: for viability, T/C: stronger effect = lower value
# Excerpt: DNA G-quadruplex Stabilizer Agents in Combinations in Complex Spheroids
# A high-throughput screen of multi-cell type tumor spheroids was designed to identify active combinations of DNA G-quadruplex stabilizer agents and targeted small molecules. Complex spheroids include a stromal component modeled by human endothelial cells (HUVEC) and fibroblasts modeled by human mesenchymal stem cells (MSCs). The concentration ranges selected for each drug and investigational agent were based upon clinically achievable concentrations if the clinical Cmax of the agent was known.
# Compounds. The drugs and investigational agents: pidnarulex (CX-5461; NSC782164), APTO-253 (NSC789042), BRACO-19 (NSC847499), peposertib (NSC802822), ceralasertib (NSC780249), elimusertib (NSC800525), camonsertib (NSC841442), AZD-1390 (NSC803789), olaparib (NSC753686), talazoparib (NSC767125), ART-558 (NSC835418), sotorasib (NSC818433), MRTX-1133 (NSC836407), SN-38 (NSC673596), topotecan (NSC609699), etoposide (NSC141540), doxorubicin (NSC123127), gemcitabine (NSC613327), 5-fluorouracil (NSC19893), paclitaxel (NSC125973), vemurafenib (NSC761431), panobinostat (NSC761190), R-306465 (JNJ-16241199; NSC773264), adavosertib (NSC754352), TP-3654 (NSC805149), carboplatin (NSC241240), KSQ-4279 (NSC840948), and staurosporine (NSC755774) were obtained from the National Cancer Institute (NCI) Developmental Therapeutics Program Chemical Repository (34). The FDA-approved anticancer drug set is available from the NCI Developmental Therapeutics Program. […] The stock solutions were prepared in dimethyl sulfoxide (DMSO, Sigma-Aldrich, St. Louis, MO, cat. D2650) at 800-fold the tested concentration and stored at -70 degrees C prior to their use. All drugs and investigational agents were tested over a range starting from a high concentration at or near the clinical Cmax and decreasing in half-log increments. If the clinical Cmax for an agent had not been determined, the highest concentration tested was 10 microM.
# 2.3 Cell Culture. All cells were maintained in an incubator at 37 degrees C and 5% CO2 with 95% humidity. The PDC lines were cultured according to standard operating procedures established by the NCI PDMR. All PDCs were thawed and cultured in Matrigel-coated flasks prepared with a working solution of 1X Ham's F-12 nutrient mix, without supplementation (Invitrogen, cat. 11765054), 100 U/mL penicillin-streptomycin (Invitrogen, cat. 15140122), and 2.5% Matrigel (Corning Inc., cat. 354248) for the first three passages. The 857933-349-R-J2-PDC line was cultured in 6C/Colon 1B media, which includes advanced DMEM/F-12 (Thermo Fisher Scientific, cat. 12634028), 10 mM HEPES (Thermo Fisher Scientific, cat. 15630080), 1X GlutaMAX supplement (Thermo Fisher Scientific, cat. 35050061), 0.1 mg/mL primocin (InvivoGen, cat. ant-pm-2), 10% defined fetal bovine serum, heat inactivated (HyClone Laboratories Inc., cat. SH30070.03HI), 50% L-WRN conditioned media (ATCC, cat. CRL-3276), 1.25 mM N-Acetyl-L-cysteine (Sigma-Aldrich, cat. A9165), 10 mM nicotinamide (Sigma-Aldrich, cat. N0636), 1X B-27 supplement (Thermo Fisher Scientific, cat. 17504044), 1X N-2 supplement (Thermo Fisher Scientific, cat. 17502048), 10 microM Y-27632 dihydrochloride (Tocris Bioscience, cat. 1254), and 50 ng/mL human EGF recombinant protein (Thermo Fisher Scientific, cat. PHG0311). The 485176-168-R4-J1-PDC line was cultured in Panc media, which includes all 6C/Colon 1B media components plus 100 ng/mL human FGF-10 (Thermo Fisher Scientific, cat. 100-26), 500 nM SB-431542 (Selleckchem, cat. S1067), and gastrin (Tocris, cat. 3006).
# […]
# 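Note: spheroids exposed to agents for 7 days before readout.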
# 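Throughout, for viability, T/C: percent viability relative to DMSO vehicle control taken as 100%.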
Compound,IC50 (curve of compound),"IC50 (compound alone, run of 02/26/2024) [µM]","viability, T/C (compound 0.0316 µM)","viability, T/C (compound 0.1 µM)","viability, T/C (compound 0.316 µM)","viability, T/C (compound 1 µM)","viability, T/C (compound 3.16 µM)","viability, T/C (compound 10 µM)","viability, T/C (compound 0.000999 µM)","viability, T/C (compound 0.00316 µM)","viability, T/C (compound 0.00999 µM)","viability, T/C (compound 0.0999 µM)"
C#Cc1c(F)ccc2cc(O)cc(-c3ncc4c(N5CC6CCC(C5)N6)nc(OCC56CCCN5CC(F)C6)nc4c3F)c12 (stereo unspecified),> 10 µM,,103% and 97.4% and 94.3%,88.4% and 96.9% and 109%,99.2% and 102% and 103%,84.3% and 102% and 93.9%,110% and 95.8% and 102%,114% and 104% and 131%,,,,
CC(=O)O[C@H]1C(=O)[C@@]2(C)[C@H]([C@H](OC(=O)c3ccccc3)[C@]3(O)C[C@H](OC(=O)[C@H](O)[C@@H](NC(=O)c4ccccc4)c4ccccc4)C(C)=C1C3(C)C)[C@]1(OC(C)=O)CO[C@@H]1C[C@@H]2O,< 0.0316 µM,,5.56% and 11.2% and 8.51%,5.44% and 6.01% and 3.69%,5.01% and 4.83% and 4.1%,4.55% and 4.35% and 3.93%,3.56% and 3.34% and 3.72%,5.03% and 4.92% and 4.14%,,,,
CC(C)(O)C1CCC(Nc2ccc3ncc(-c4cccc(C(F)(F)F)c4)n3n2)CC1 (stereo unspecified),> 10 µM and 1.78 µM,,99.8% and 97.4% and 104%,95.4% and 98.8% and 80.9%,106% and 104% and 101%,68.3% and 84.7% and 79%,50.6% and 46.8% and 19.7%,67.2% and 53% and 22.6%,,,,
CC(C)n1c(=O)n(C)c2cnc3cc(F)c(-c4ccc(OCCCN5CCCCC5)nc4)cc3c21,> 10 µM,,106% and 107% and 100%,101% and 102% and 97.5%,95.1% and 105% and 102%,89.8% and 100% and 89.2%,104% and 113% and 101%,107% and 103% and 60.3%,,,,
CCCS(=O)(=O)Nc1ccc(F)c(C(=O)c2c[nH]c3ncc(-c4ccc(Cl)cc4)cc23)c1F,5.28 µM and 6.05 µM and 4.91 µM,,117% and 113% and 109%,106% and 102% and 81.6%,110% and 103% (2×),92.1% and 92.8% and 79.2%,75.5% and 88.9% and 75.2%,21% and 22% and 16.1%,,,,
CC[C@@]1(O)C(=O)OCc2c1cc1n(c2=O)Cc2cc3c(CN(C)C)c(O)ccc3nc2-1,0.0376 µM and 0.0595 µM and 0.0301 µM,,53.6% and 60.3% and 47.5%,,26.1% and 37.7% and 29.7%,,,,107% and 116% and 105%,94.3% (2×) and 87.9%,107% (2×) and 109%,33.9% and 45.5% and 27.7%
CCc1c2c(nc3ccc(O)cc13)-c1cc3c(c(=O)n1C2)COC(=O)[C@]3(O)CC,0.00158 µM and 0.00231 µM and 0.00163 µM,,15.5% and 21.2% and 14.7%,,5.27% and 4.91% and 3.96%,,,,63% and 65.3% and 63.2%,26.9% and 40% and 26.7%,24.7% and 33% and 30.2%,9.08% and 10.2% and 7.65%
CN(C)c1ccc(Nc2c3ccc(NC(=O)CCN4CCCC4)cc3nc3cc(NC(=O)CCN4CCCC4)ccc23)cc1,,> 10,102% [middle of 12 runs],99.2% [middle of 12 runs],97.7% [middle of 12 runs],102% [middle of 12 runs],100% [middle of 12 runs],93.7% [middle of 12 runs],,,,

# Further lines, with some results ahead:
IC50 (curve of compound),"IC50 (compound alone, run of 02/26/2024) [µM]",Compound,"viability, T/C (compound 0.0316 µM)","viability, T/C (compound 0.1 µM)","viability, T/C (compound 0.316 µM)","viability, T/C (compound 1 µM)","viability, T/C (compound 3.16 µM)","viability, T/C (compound 10 µM)","viability, T/C (compound 0.000999 µM)","viability, T/C (compound 0.00316 µM)","viability, T/C (compound 0.00999 µM)","viability, T/C (compound 0.0999 µM)"
> 10 µM,,C=CC(=O)N1CCN(c2nc(=O)n(-c3c(C)ccnc3C(C)C)c3nc(-c4c(O)cccc4F)c(F)cc23)C(C)C1 (stereo unspecified),94.6% and 98.7% and 113%,87.2% and 97.6% and 96.2%,96% and 99.3% and 113%,84.4% and 93.2% and 89.2%,108% and 102% and 112%,98.3% and 81.2% and 102%,,,,
0.245 µM and 0.237 µM and 0.232 µM,,C=CCn1c(=O)c2cnc(Nc3ccc(N4CCN(C)CC4)cc3)nc2n1-c1cccc(C(C)(C)O)n1,97.1% and 105% and 99.8%,95.4% and 102% and 93.9%,37.1% and 32.5% and 33.8%,7.67% and 9.37% and 5.53%,6.89% and 6.69% and 4.84%,5.09% and 5.85% and 4.19%,,,,
0.0464 µM and < 0.0316 µM and 0.0444 µM,,CC1COCCN1c1cc(-c2ccnn2C)c2ccnc(-c3ccn[nH]3)c2n1 (stereo unspecified),67.1% and 49.9% and 63.2%,15.9% and 20.1% and 19.1%,8.87% and 9.11% and 9.13%,5.41% and 7.67% and 7.19%,5.54% and 7.47% and 5.88%,4.28% and 5.96% and 5.46%,,,,
< 0.0316 µM,,CC1COCCN1c1cc(C2(O)CC3CCC(C2)O3)c2cnn(-c3ccn[nH]3)c2n1 (stereo unspecified),39.5% and 42.2% and 31.3%,10.2% and 9.96% and 13.3%,7.94% and 8.95%,6.19% and 4.8% and 7.29%,5.19% and 5.01% and 5.9%,2.86% and 3.51% and 4.63%,,,,
0.649 µM and 0.654 µM and 0.697 µM,,CC1COCCN1c1cc(C2(S(C)(=N)=O)CC2)nc(-c2ccnc3[nH]ccc23)n1 (stereo unspecified),112% and 93.9% and 91.7%,89.1% and 102% and 105%,93.1% and 88.9% and 90%,24.1% and 27.1% and 31.6%,11% and 9.68% and 11.2%,8.31% and 9.22% and 9.36%,,,,
